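Briefly, cells in 96-well plates were exposed to five compound concentrations for 48 h, and endpoints were estimated by linear interpolation. TGI: total growth inhibition.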 *1 amine or outer side, *2 acyl side, *3 side chain or, on linkers, in order; H or OH if unused. Where a SMILES comes first, the peptide text is derived from it. Bridges are numbered along the chain shown (N, C = ends). Roman numbers before positions name the chains, in order. [ ]: non-standard residue; d: D form. The star is where a group is joined. Actinocin(9to1) = Cc1c2oc3c(C)ccc(C(=O)[*:1])c3nc-2c(C(=O)[*:2])c(N)c1=O; NMeV = CN[CH](C(=O)O)C(C)C; Boc = CC(C)(C)OC(=O)*; OBn = c1ccc(CO*)cc1; Sar = CNCC(=O)O

Holding throughout (experiment): DTP human tumour cell line panel, 48 h
Assay [1] has as its system OVCAR-5 ovarian.
Assay [2] deals with OVCAR-4 ovarian.
Assay [3] concerns EKVX NSCLC.
Assay [4] concerns SR leukemia.
Assay [5] relates to UACC-257 melanoma.
The subject of assay [6] is M14 melanoma.
For assay [7], the system named is A498 renal.
Assay [8] deals with M19-MEL melanoma.

Turning to `OC1(c2cc3ccccc3s2)CCCCC1`, the TGI in assay [1] is more than 100 µM; in assay [2], more than 100 µM; in assay [3], 71.7 µM; in assay [4], more than 100 µM; in assay [5], more than 100 µM; in assay [6], more than 100 µM. In assay [7], this molecule yielded a TGI of more than 100 µM.

Consider `[N-]=[N+]=NCc1cccc(Nc2cc(=O)[nH]c(=O)[nH]2)c1`, for which the TGI in assay [1], in assay [3], in assay [4], in assay [5], in assay [6] and in assay [7] was more than 100 µM throughout.

Take `Cc1[nH]c2ccccc2c1C=Nc1ccc(N=Cc2c(C)[nH]c3ccccc23)cc1`: the TGI in assay [1] was more than 100 µM; in assay [2], more than 100 µM; in assay [3], more than 100 µM; in assay [4], 46.9 µM; in assay [5], more than 100 µM; in assay [6] it was more than 100 µM. In addition, the TGI in assay [7] was more than 100 µM.

Consider `NC(=O)c1ccc2c(c1)S(=O)(=O)c1ccccc1C2=O`, for which the TGI in assay [1], in assay [2], in assay [3], in assay [4], in assay [5] and in assay [6] was more than 100 µM in each case. This molecule displayed a TGI in assay [7] of more than 100 µM.

In the case of `COc1ccc(N=N/C(=N/NC(=O)c2ccccc2)c2ccc(N(CCC#N)CCC#N)cc2C)cc1`, the TGI in assay [1], in assay [2], in assay [3], in assay [4], in assay [5] and in assay [6] was more than 100 µM in each case. The TGI in assay [7] was more than 100 µM.

For the molecule `CCOc1nc(-c2ccccc2)cc(-c2ccc(N3CCOCC3)cc2)c1C#N`, the TGI in assay [1], in assay [2], in assay [3], in assay [4], in assay [5] and in assay [6] was more than 100 µM throughout. This molecule also showed a TGI in assay [7] of more than 100 µM.

In the case of `C(=C\c1ccccc1)/C=N/c1nc2cc3sc(/N=C/C=C/c4ccccc4)nc3cc2s1`, the TGI in assay [1] is more than 100 µM; in assay [2], more than 100 µM; in assay [3] it was more than 100 µM; in assay [4], 32.4 µM; in assay [5] it was more than 100 µM; in assay [6] it was more than 100 µM. In assay [7], this molecule had a TGI of more than 100 µM.

In the case of `Cc1c2oc3c(C)ccc(C(=O)NC4C(=O)NC(C(C)O)C(=O)N5CCCC5C(=O)N(C)CC(=O)N(C)C(C(C)C)C(=O)OC4C)c3nc-2c(C(=O)NC2C(=O)NC(C(C)O)C(=O)N3CCCC3C(=O)N(C)CC(=O)N(C)C(C(C)C)C(=O)OC2C)c(N)c1=O` (stereo not given) (I: TTP[Sar][NMeV] / II: TTP[Sar][NMeV]; ester I:1-I:C, II:1-II:C; linker I:N-II:N via Actinocin(9to1); configuration not given here), the TGI is 44.2 µM in assay [1]; more than 63.3 µM in assay [2]; more than 42.2 µM in assay [3]; 0.047 µM in assay [4]; 3.2 µM in assay [5]; 3.77 µM in assay [6]. This molecule yielded a TGI in assay [7] of 2.71 µM.

As for `CN(C)CCNC(=O)c1cccc2nc3c(nc12)-c1ccccc1C3=O`, the TGI in assay [1] was 90.1 µM; in assay [2], 58.2 µM; in assay [3], 48.6 µM; in assay [4], more than 21.5 µM; in assay [5], 34.6 µM; in assay [6] it was 31.9 µM. Besides, the TGI in assay [7] came to 29.5 µM.

`CCOC(=O)/C=C(/C(=O)OCC)n1cc(C)c(=O)n(Cc2cn(COCCOC(C)=O)nn2)c1=O`: the TGI in assay [1] is 65 µM; in assay [2], 40 µM; in assay [3], 31.3 µM; in assay [4], more than 94.9 µM; in assay [5], 49.9 µM; in assay [6], more than 100 µM. In addition, the TGI in assay [7] is more than 100 µM.

On to `CC(C)(C)C1(COC(=O)c2ccc(N)cc2)COC1`, for which the TGI in assay [1], in assay [2], in assay [3], in assay [4], in assay [5] and in assay [6] was more than 100 µM throughout. In addition, the TGI in assay [7] was more than 100 µM.

Turning to `CC(NC(=O)C(NC(=O)OC(C)(C)C)C(C)C)C(=O)N1CCCC1C(=O)NCC(=O)NC(C(=O)NCC(=O)OCc1ccccc1)C(C)C` (stereo not given) (Boc-VAPGVG-OBn; configuration not given here), the TGI in assay [1], in assay [2], in assay [3], in assay [4], in assay [5] and in assay [6] was more than 100 µM each time. Further, the TGI in assay [7] was more than 100 µM.

Regarding `c1ccc2c(c1)CCc1cc3cc4c(nc3nc1-2)-c1ccccc1CC4`, the TGI in assay [8], in assay [3], in assay [4], in assay [5] and in assay [6] was more than 100 µM throughout.

In the case of `[N-]=[N+]=CC(=O)OCC1SCCCS1`, the TGI in assay [1], in assay [2], in assay [3], in assay [4], in assay [5] and in assay [7] was more than 100 µM in each case.

`Cc1sc(/N=C/c2c[nH]c3ccccc23)c(C#N)c1C`: the total growth inhibition concentration (TGI) in assay [1], in assay [2], in assay [3], in assay [4], in assay [5] and in assay [6] was more than 100 µM each time. Moreover, the TGI in assay [7] was found to be 96.7 µM.

For the molecule `C=CCSC1=N/C(=C\c2ccccc2)C(=O)N1CC=C`, the TGI in assay [1] is more than 100 µM; in assay [2], more than 100 µM; in assay [3], 77 µM; in assay [4], more than 61.6 µM; in assay [5] it was more than 82.5 µM; in assay [6], more than 100 µM. In addition, the TGI in assay [7] came out at 83.9 µM.

Regarding `O=C1/C(=C/c2ccccc2[N+](=O)[O-])N=C(c2ccccc2)N1C1Nc2cc3c(cc2S1)NC(N1C(=O)/C(=C/c2ccccc2[N+](=O)[O-])N=C1c1ccccc1)S3` (stereo not given), the TGI in assay [1] was more than 100 µM; in assay [2], more than 100 µM; in assay [3], more than 100 µM; in assay [4], 90.3 µM; in assay [5], more than 100 µM; in assay [6], more than 100 µM. Further, the TGI in assay [7] was more than 100 µM.

For orientation: TGI means the concentration giving total growth inhibition.

Source of the values: PubChem BioAssay (NCI).
